Measurements taken from ChEMBL document CHEMBL5724696, “Autophagy assay results for EUbOPEN Chemogenomics Library” (2024).

Assays:
Type in all cases: functional, Homo sapiens
TERT-RPE1 = experiment: (§1) Here: values are normalized to the negative (DMSO; defined as 0% autophagy induction) and positive (250nM Torin1; mTOR inhibitor; defined as maximal inducer of autophagy = 100%) control compounds and represented as % of autophagy induction. […] The impact of autophagy induction on cells is complex and depends on the affected target. As such, the magnitude of a phenotype may not be equally mirrored in the %-value of autophagy induction and vice versa. The dynamics of the induction may indicate the mode of activation: e.g. activation via phosphorylation or a signaling cascade may occur fast, while activation via transcription factors may take considerably longer. […] Of note, treatment concentrations may be sub-optimal for specific compounds, leading to false negative annotations.; conditions: Culturing Media DMEM/F12 (1:1), 1 % Penicillin/Streptomycin, 10% Fetal bovin serum Add-On: No, Screening Media Control DMEM/F12 (1:1), Screening Media Samples DMEM/F12 (1:1)
U2OS [1] = experiment: as §1; conditions: Culturing Media DMEM, 1 % Penicillin/Streptomycin, 10% Fetal bovin serum Add-On: No, Screening Media Control DMEM, Screening Media Samples DMEM
U2OS [2] = experiment: as §1; conditions: Culturing Media DMEM, 1 % Penicillin/Streptomycin, 10% Fetal bovin serum Add-On: No, Screening Media Control DMEM, Screening Media Samples DMEM; remark: listed apart in the source
[3] = Compound Concentration 0.5 uM, Timepoint 12 hours
[4] = Compound Concentration 0.5 uM, Timepoint 24 hours
[5] = Compound Concentration 0.5 uM, Timepoint 36 hours
[6] = Compound Concentration 0.5 uM, Timepoint 60 hours
[7] = Compound Concentration 2 uM, Timepoint 12 hours
[8] = Compound Concentration 2 uM, Timepoint 24 hours
[9] = Compound Concentration 2 uM, Timepoint 36 hours
[10] = Compound Concentration 2 uM, Timepoint 60 hours
[11] = Compound Concentration 10 uM, Timepoint 12 hours
[12] = Compound Concentration 10 uM, Timepoint 24 hours
[13] = Compound Concentration 10 uM, Timepoint 36 hours
[14] = Compound Concentration 10 uM, Timepoint 60 hours

Structure (SMILES) | autophagy induction (TERT-RPE1; [3]) | autophagy induction (TERT-RPE1; [4]) | autophagy induction (TERT-RPE1; [5]) | autophagy induction (TERT-RPE1; [6]) | autophagy induction (TERT-RPE1; [7]) | autophagy induction (TERT-RPE1; [8]) | autophagy induction (TERT-RPE1; [9]) | autophagy induction (TERT-RPE1; [10]) | autophagy induction (TERT-RPE1; [11]) | autophagy induction (TERT-RPE1; [12]) | autophagy induction (TERT-RPE1; [13]) | autophagy induction (TERT-RPE1; [14]) | autophagy induction (U2OS [1]; [3]) | autophagy induction (U2OS [1]; [4]) | autophagy induction (U2OS [1]; [5]) | autophagy induction (U2OS [1]; [6]) | autophagy induction (U2OS [1]; [7]) | autophagy induction (U2OS [1]; [8]) | autophagy induction (U2OS [1]; [9]) | autophagy induction (U2OS [1]; [10]) | further results
Cc1c(P(=S)(c2ccccc2)c2ccccc2)n2ccccc2[n+]1C/C=C/c1ccccc1.[Br-] | -3.105% | -8.592% | -12.0302% | -17.0508% | 2.878% | -0.5859% | 1.195% | -1.818% | 24.7841% | 51.8106% | 73.7567% | 96.4076% | -4.037% | -2.741% | -2.914% | -1.509% | -1.2597% | -1.1621% | -2.341% | -2.536% | autophagy induction (U2OS [1]; [11]): -27.5654%; autophagy induction (U2OS [1]; [12]): -9.802%; autophagy induction (U2OS [1]; [13]): -1.3311%; autophagy induction (U2OS [1]; [14]): 3.649%; autophagy induction (U2OS [2]; [3]): -3.655%; autophagy induction (U2OS [2]; [4]): 0.9546%; autophagy induction (U2OS [2]; [5]): -1.282%; autophagy induction (U2OS [2]; [6]): 2.215%; autophagy induction (U2OS [2]; [7]): -8.9%; autophagy induction (U2OS [2]; [8]): -2.047%; autophagy induction (U2OS [2]; [9]): 1.308%; autophagy induction (U2OS [2]; [10]): 3.722%; autophagy induction (U2OS [2]; [11]): 47.8904%; autophagy induction (U2OS [2]; [12]): 55.2067%; autophagy induction (U2OS [2]; [13]): 55.7211%; autophagy induction (U2OS [2]; [14]): 73.829%
O=C(Nc1ccc(Cl)cc1)Nc1cccc(-c2cccc(N3CCCC3)n2)c1 | -4.744% | -3.44% | 1.901% | 11.3473% | -2.257% | -2.102% | -2.6063% | -0.1832% | -0.5349% | 20.6675% | 44.4615% | 64.0305% | 3.433% | -0.7352% | -0.9133% | -1.608% | -0.4509% | -1.587% | -2.698% | -2.799% | autophagy induction (U2OS [1]; [11]): -2.177%; autophagy induction (U2OS [1]; [12]): -0.7353%; autophagy induction (U2OS [1]; [13]): -4.281%; autophagy induction (U2OS [1]; [14]): 0.461%; autophagy induction (U2OS [2]; [3]): 17.3616%; autophagy induction (U2OS [2]; [4]): 17.7757%; autophagy induction (U2OS [2]; [5]): 11.2699%; autophagy induction (U2OS [2]; [6]): 1.747%; autophagy induction (U2OS [2]; [7]): 20.6353%; autophagy induction (U2OS [2]; [8]): 15.806%; autophagy induction (U2OS [2]; [9]): 8.553%; autophagy induction (U2OS [2]; [10]): 8.133%; autophagy induction (U2OS [2]; [11]): -2.269%; autophagy induction (U2OS [2]; [12]): 13.0876%; autophagy induction (U2OS [2]; [13]): 22.7984%; autophagy induction (U2OS [2]; [14]): 31.1337%
Cc1cc(C)cc(C(=O)N(C)[C@H](Cc2ccc(-c3ccccc3)cc2)C(=O)N[C@@H](Cc2c[nH]c3ccccc23)C(=O)O)c1 | -14.7352% | -10.2057% | -9.628% | -6.49% | -8.48% | -8.155% | -8.294% | -6.276% | -5.809% | -2.795% | -2.603% | -5.126% | -3.328% | -1.823% | -2.116% | -0.69% | 4.263% | 2.513% | -0.01148% | -0.5825% | autophagy induction (U2OS [1]; [11]): 3.263%; autophagy induction (U2OS [1]; [12]): 3.281%; autophagy induction (U2OS [1]; [13]): 1.189%; autophagy induction (U2OS [1]; [14]): 0.3614%; autophagy induction (U2OS [2]; [3]): 20.0451%; autophagy induction (U2OS [2]; [4]): 13.0827%; autophagy induction (U2OS [2]; [5]): 8.17%; autophagy induction (U2OS [2]; [6]): 4.398%; autophagy induction (U2OS [2]; [7]): 5.392%; autophagy induction (U2OS [2]; [8]): 1.718%; autophagy induction (U2OS [2]; [9]): -3.298%; autophagy induction (U2OS [2]; [10]): -11.258%; autophagy induction (U2OS [2]; [11]): 17.6344%; autophagy induction (U2OS [2]; [12]): 16.7447%; autophagy induction (U2OS [2]; [13]): 13.7232%; autophagy induction (U2OS [2]; [14]): 11.2064%
